Data: ChEMBL document CHEMBL5053527, “Design, synthesis, and pharmacological profiling of cannabinoid 1 receptor allosteric modulators: Preclinical efficacy of C2-group GAT211 congeners for reducing intraocular pressure” (Bioorg Med Chem, 2021)
In brackets after ≈: the same amount, converted by molar mass. Activity calls are given as the source filed them. No cut-off for these calls is given here.

Tests used:
Cannabinoid receptor 1 [1] = molecular target: T1, Cannabinoid receptor 1 (Homo sapiens, UniProt P21554); experiment: Positive allosteric modulation of human CB1 receptor expressed in CHO-K1 cells assessed as beta-arrestin 2 recruitment incubated for 90 mins by PathHunter chemiluminescence based assay; assay type: cell-based
T1 sequence (P21554 whole entry): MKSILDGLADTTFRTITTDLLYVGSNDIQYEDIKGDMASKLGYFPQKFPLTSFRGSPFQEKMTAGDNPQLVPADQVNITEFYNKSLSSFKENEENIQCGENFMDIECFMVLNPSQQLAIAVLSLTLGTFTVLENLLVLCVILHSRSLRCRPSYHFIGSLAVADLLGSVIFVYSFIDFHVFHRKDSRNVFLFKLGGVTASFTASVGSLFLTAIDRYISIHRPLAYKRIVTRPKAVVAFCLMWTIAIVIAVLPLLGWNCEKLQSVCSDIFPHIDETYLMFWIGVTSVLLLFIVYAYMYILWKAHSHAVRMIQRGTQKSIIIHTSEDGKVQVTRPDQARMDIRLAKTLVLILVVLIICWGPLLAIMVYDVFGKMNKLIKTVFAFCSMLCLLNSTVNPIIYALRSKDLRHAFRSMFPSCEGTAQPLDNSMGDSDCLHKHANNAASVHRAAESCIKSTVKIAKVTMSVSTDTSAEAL

Cannabinoid receptor 1 [2] = molecular target: T1, Cannabinoid receptor 1; experiment: Positive allosteric modulation of human CB1 receptor expressed in CHO-K1 cells assessed as inhibition of forskolin-induced cAMP production incubated for 30 mins in presence of forskolin by HitHunter chemiluminescence based assay; assay type: functional, cell-based
Cannabinoid receptor 1 [3] = molecular target: T1, Cannabinoid receptor 1; experiment: Positive allosteric modulation of human CB1 receptor expressed in CHO-K1 cells assessed as inhibition of forskolin-induced cAMP production by measuring maximum efficacy incubated for 30 mins in presence of forskolin by HitHunter chemiluminescence based assay relative to control; assay type: functional, cell-based
Cannabinoid receptor 1 [4] = molecular target: T1, Cannabinoid receptor 1; experiment: Positive allosteric modulation of human CB1 receptor expressed in CHO-K1 cells assessed as beta-arrestin 2 […] by measuring maximum efficacy incubated for 90 mins by PathHunter chemiluminescence based assay relative to control; assay type: cell-based
Cannabinoid receptor 1 [5] = molecular target: T1, Cannabinoid receptor 1; experiment: Agonist activity at human CB1 receptor expressed in CHO cell membranes assessed as increase in [35S]GTPgammaS binding by measuring maximum efficacy incubated for 30 mins by liquid scintillation spectrometry analysis relative to control; assay type: functional; details: CHO-K1, Cell membrane, filed as agonist
Cannabinoid receptor 1 [6] = molecular target: T1, Cannabinoid receptor 1; experiment: Displacement of [3H]CP55940 from human CB1 receptor expressed in CHO-K1 cell membrane assessed as maximum efficacy incubated for 60 mins by liquid scintillation spectrometry analysis relative to control; assay type: cell membranes
Mus musculus = experiment: Antiglaucoma activity in normotensive C57BL/6 mouse model assessed as reduction in intraocular pressure at 5 mM administered topically measured after 1 hr; assay type: functional
Cannabinoid receptor 1 [7] = molecular target: Cannabinoid receptor 1 (Mus musculus, UniProt P47746); experiment: Positive allosteric modulation of CB1 receptor in MF1 mouse vas deferens assessed as inhibition of AEA-induced electrically evoked vas deferens contraction incubated for 13 mins followed by electrical stimulation for 2 mins (Rvb= 460 nM); assay type: tissue-based
Cannabinoid receptor 1 (Mus musculus, UniProt P47746), sequence (P47746 whole entry): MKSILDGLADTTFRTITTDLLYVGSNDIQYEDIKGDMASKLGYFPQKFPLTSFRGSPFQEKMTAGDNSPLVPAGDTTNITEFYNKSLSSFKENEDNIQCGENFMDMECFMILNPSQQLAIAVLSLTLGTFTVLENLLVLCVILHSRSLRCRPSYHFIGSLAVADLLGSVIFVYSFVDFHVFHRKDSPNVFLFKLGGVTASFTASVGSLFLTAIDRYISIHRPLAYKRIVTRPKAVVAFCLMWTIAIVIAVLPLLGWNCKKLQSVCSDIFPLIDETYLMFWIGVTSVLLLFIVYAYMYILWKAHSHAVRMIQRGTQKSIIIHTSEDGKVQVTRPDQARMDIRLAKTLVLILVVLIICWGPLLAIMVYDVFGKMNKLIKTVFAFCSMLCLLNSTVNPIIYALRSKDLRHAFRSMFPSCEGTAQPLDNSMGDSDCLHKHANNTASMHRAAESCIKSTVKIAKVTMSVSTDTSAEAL

Cannabinoid receptor 1 [8] = molecular target: T1, Cannabinoid receptor 1; experiment: Displacement of [3H]CP55940 from human CB1 receptor expressed in CHO-K1 cell membranes incubated for 60 mins by liquid scintillation spectrometry analysis; design: species or system Cell membrane
[9] = molecular target: Cannabinoid receptor 1 (Mus musculus) (UniProt P47746); experiment: Agonist activity at CB1 receptor in C57BL/6 mouse hippocampal neurons assessed as inhibition of excitatory postsynaptic current at 1 uM at -70 mV holding membrane potential by whole cell patch clamp assay; assay type: functional, tissue-based; details: Neuron, filed as agonist
Cannabinoid receptor 1 (Mus musculus), sequence (P47746 whole entry): as above

physchem = details: PBS buffer, pH 7.4
in vitro [10] = details: rat, liver microsomes
[11] = molecular target: Cannabinoid receptor 1 (Mus musculus) (UniProt P47746); experiment: Positive allosteric modulation of CB1 receptor in C57BL/6 mouse hippocampal neurons assessed as decrease in inhibition of DSE recovery rate at 1 uM and holding potential at 0 mV for 10 secs followed by DSE stimulation; assay type: tissue-based; details: Neuron, filed as positive allosteric modulator, time 10.0 sec
Cannabinoid receptor 1 [12] = molecular target: T1, Cannabinoid receptor 1; experiment: Potency index, ratio of GAT211 EC50 to test compound EC50 for positive allosteric modulation of human CB1 receptor expressed in CHO-K1 cells assessed as inhibition of forskolin-induced cAMP production incubated for 30 mins in presence of CP55940 by HitHunter chemiluminescence based assay; assay type: functional, cell-based
in vitro [13] = details: rat, liver microsomes; remark: listed apart in the source
Cannabinoid receptor 1 [14] = molecular target: T1, Cannabinoid receptor 1; experiment: Agonist activity at human CB1 receptor expressed in CHO cell membranes assessed as increase in [35S]GTPgammaS binding by measuring maximum efficacy incubated for 30 mins in presence of CP55940 by liquid scintillation spectrometry analysis relative to control; assay type: functional; details: CHO-K1, Cell membrane, filed as agonist
[15] = molecular target: Cannabinoid receptor 1 (Mus musculus) (UniProt P47746); experiment: Positive allosteric modulation of CB1 receptor in MF1 mouse vas deferens assessed as inhibition of AEA-induced electrically evoked vas deferens contraction by measuring maximum efficacy incubated for 13 mins followed by electrical stimulation for 2 mins (Rvb= […]+/- […]% ); assay type: tissue-based; details: filed as positive allosteric modulator
Cannabinoid receptor 1 [16] = molecular target: T1, Cannabinoid receptor 1; experiment: Agonist activity at human CB1 receptor expressed in CHO cell membranes assessed as increase in [35S]GTPgammaS binding incubated for 30 mins by liquid scintillation spectrometry analysis; assay type: functional, CHO-K1, Cell membrane
in vitro [17] = details: human, liver microsomes
in vitro [18] = details: human, liver microsomes; remark: listed apart in the source
[19] = filed as positive allosteric modulator

| Compound | EC50 (Cannabinoid receptor 1 [1]) [nM] | EC50 (Cannabinoid receptor 1 [2]) [nM] | Emax (Cannabinoid receptor 1 [3]; [19]) [%] | Emax (Cannabinoid receptor 1 [4]) [%] | other results |
| --- | --- | --- | --- | --- | --- |
| O=[N+]([O-])CC(c1ccccc1)c1c(-c2nccs2)[nH]c2ccccc12 (stereo unspecified) | > 10000 | 790 | 72 | 2.8 |  |
| O=[N+]([O-])CC(c1ccccc1)c1c(-c2cc3ccccc3o2)[nH]c2ccccc12 (stereo unspecified) | > 10000 | 550 | 96 | 9.5 |  |
| CC(C)[Si](C(C)C)(C(C)C)n1ccc(-c2[nH]c3ccccc3c2C(C[N+](=O)[O-])c2ccccc2)c1 (stereo unspecified) | > 10000 | 970 | 120 | -4.5 |  |
| CCCCCCC(C)(C)c1ccc([C@@H]2C[C@H](O)CC[C@H]2CCCO)c(O)c1 |  |  |  |  | Emax (Cannabinoid receptor 1 [5]): 42%; Emax (Cannabinoid receptor 1 [6]): -100% |
| O=[N+]([O-])CC(c1ccccc1)c1c(-c2ccsc2)[nH]c2ccccc12 (stereo unspecified) | 320 | 87 | 98 |  | Activity (Mus musculus): 3.2 mmHg; EC50 (Cannabinoid receptor 1 [7]): 30 nM; Ki (Cannabinoid receptor 1 [8]): 43 nM; inhibition [9]: Active; solubility kinetic at 2 h, 200 µM (physchem): 1.56 µM (≈ 0.544 µg/mL); half-life at 0.25 h, 1 µM (in vitro [10]): 4.72 min; Activity [11]: Active; Emax (Cannabinoid receptor 1 [5]): 49%; Ratio EC50 (Cannabinoid receptor 1 [12]): 3; microsomal CLint at 0.25 h, 1 µM (in vitro [13]): 489 µL/min/mg; Emax (Cannabinoid receptor 1 [14]): 46%; Emax [15]: 62%; Emax (Cannabinoid receptor 1 [6]; [19]): 100%; EC50 (Cannabinoid receptor 1 [16]): 130 nM; microsomal CLint at 0.25 h, 1 µM (in vitro [17]): 111 µL/min/mg; half-life at 0.25 h, 1 µM (in vitro [18]): 20.8 min; Emax (Cannabinoid receptor 1 [4]; [19]): 46% |
| O=[N+]([O-])CC(c1ccccc1)c1c(-c2cc3ccccc3[nH]2)[nH]c2ccccc12 (stereo unspecified) | > 10000 | > 10000 | 110 | 3.3 |  |
| O=[N+]([O-])CC(c1ccccc1)c1c(-c2ccn[nH]2)[nH]c2ccccc12 (stereo in doubt; 15g) [listing 1 of 2 here] |  |  |  | 0 | Emax (Cannabinoid receptor 1 [3]): 0% |
| O=[N+]([O-])CC(c1ccccc1)c1c(-c2ccco2)[nH]c2ccccc12 (stereo unspecified) | 2100 | 130 | 140 | 11 |  |
| O=[N+]([O-])CC(c1ccccc1)c1c(-c2cscn2)[nH]c2ccccc12 (stereo unspecified) | > 10000 | 1200 |  |  | Emax (Cannabinoid receptor 1 [3]): 38%; Emax (Cannabinoid receptor 1 [4]; [19]): 45% |
| O=[N+]([O-])CC(c1ccccc1)c1c(-c2cncs2)[nH]c2ccccc12 (stereo unspecified) | > 10000 | 1500 | 100 | 5.1 |  |
| O=[N+]([O-])CC(c1ccccc1)c1c(-c2c[nH]c3ccccc23)[nH]c2ccccc12 (stereo unspecified) | > 10000 | > 10000 |  | 1.3 | Emax (Cannabinoid receptor 1 [3]): -71% |
| O=[N+]([O-])CC(c1ccccc1)c1c(-c2ccc[nH]2)[nH]c2ccccc12 (stereo unspecified) | > 10000 | 220 | 110 | 25 |  |
| O=[N+]([O-])CC(c1ccccc1)c1c(-c2cccs2)[nH]c2ccccc12 (stereo unspecified) | 110 | 170 | 85 |  | solubility kinetic at 2 h, 200 µM (physchem): 1.56 µM (≈ 0.544 µg/mL); half-life at 0.25 h, 1 µM (in vitro [10]): 3.88 min; microsomal CLint at 0.25 h, 1 µM (in vitro [13]): 595 µL/min/mg; microsomal CLint at 0.25 h, 1 µM (in vitro [17]): 115 µL/min/mg; half-life at 0.25 h, 1 µM (in vitro [18]): 20 min; Emax (Cannabinoid receptor 1 [4]; [19]): 57% |
| O=[N+]([O-])CC(c1ccccc1)c1c(-c2ccn[nH]2)[nH]c2ccccc12 (stereo in doubt; 15g) [listing 2 of 2 here] | > 10000 | > 10000 |  |  |  |
| O=[N+]([O-])CC(c1ccccc1)c1c(-c2cc[nH]c2)[nH]c2ccccc12 (stereo unspecified) | > 10000 | > 10000 | 52 | -1.5 |  |
| O=[N+]([O-])CC(c1ccccc1)c1c(-c2ccn[nH]2)[nH]c2ccccc12 (stereo in doubt; 15h) [listing 1 of 2 here] |  |  | 120 | 0.76 |  |
| O=[N+]([O-])CC(c1ccccc1)c1c(-c2ccccc2)[nH]c2ccccc12 (stereo unspecified) |  |  |  |  | Emax (Cannabinoid receptor 1 [6]; [19]): 57% |
| O=[N+]([O-])CC(c1ccccc1)c1c(-c2ccn[nH]2)[nH]c2ccccc12 (stereo in doubt; 15h) [listing 2 of 2 here] |  |  |  |  | EC50 (Cannabinoid receptor 1 [1]; cho-k1): > 10000 nM; EC50 (Cannabinoid receptor 1 [2]; cho-k1): > 10000 nM |
| O=[N+]([O-])CC(c1ccccc1)c1c(-c2ccoc2)[nH]c2ccccc12 (stereo unspecified) | > 1000 | 100 | 120 | 18 |  |
| CC(C)(C)OC(=O)n1c(-c2[nH]c3ccccc3c2C(C[N+](=O)[O-])c2ccccc2)cc2ccccc21 (stereo unspecified) | > 10000 | > 10000 |  | 0 | Emax (Cannabinoid receptor 1 [3]): 0% |
| O=[N+]([O-])CC(c1ccccc1)c1c(-c2cc3ccccc3s2)[nH]c2ccccc12 (stereo unspecified) | > 10000 | 150 | 130 | 13 |  |
| O=[N+]([O-])CC(c1ccccc1)c1c(-c2cn[nH]c2)[nH]c2ccccc12 (stereo unspecified) | > 10000 | > 10000 | 110 | 3.5 |  |
